Literature values as cited in patent publication US10391093B2, “Therapeutic compounds” (Arizona Board of Regents, A Body Corporate of the State of …, priority 2011, dated 2019).

Columns and labels:
[1] = tested on: hRXR; details: Caco-2 cells
[2] = target: hRXR; details: Caco-2 cells; remark: listed apart in the source
[3] = target: hRXRβ (Homo sapiens, UniProt P28702); details: read-out: EC50 for the hRXRβ isoform
hRXRβ, sequence (P28702 whole entry, canonical isoform): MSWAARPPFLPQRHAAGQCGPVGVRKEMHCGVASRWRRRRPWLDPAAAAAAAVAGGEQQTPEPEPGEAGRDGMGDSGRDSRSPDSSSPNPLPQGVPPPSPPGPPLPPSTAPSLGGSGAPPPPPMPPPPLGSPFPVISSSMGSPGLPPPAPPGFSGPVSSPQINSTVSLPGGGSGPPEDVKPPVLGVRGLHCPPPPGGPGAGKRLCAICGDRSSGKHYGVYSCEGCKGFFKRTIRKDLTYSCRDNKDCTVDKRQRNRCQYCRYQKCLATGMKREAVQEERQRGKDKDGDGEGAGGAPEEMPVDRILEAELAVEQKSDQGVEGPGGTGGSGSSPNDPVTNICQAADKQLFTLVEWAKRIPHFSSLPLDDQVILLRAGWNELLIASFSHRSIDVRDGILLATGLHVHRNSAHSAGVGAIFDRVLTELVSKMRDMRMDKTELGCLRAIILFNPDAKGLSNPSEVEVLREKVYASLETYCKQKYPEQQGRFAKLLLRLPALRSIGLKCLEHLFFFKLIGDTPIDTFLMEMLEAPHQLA

Compound | EC50 [1] [nM] | Kd [2] [nM] | EC50 [3] [nM]
C=C(c1ccc(C(=O)O)c(F)c1)c1cc2c(cc1C)C(C)(C)CCC2(C)C [Compound 3] | 43 | 12 | –
Cc1cc2c(cc1-c1cc(/C=C/C(=O)O)ccc1O)C(C)(C)CCC2(C)C [CD3254] | – | – | ~10
